# US9732075B2, “Benzimidazole-proline derivatives” (IDORSIA PHARMACEUTICALS LTD, priority 2012, dated 2017)
# How the values were obtained:
# [1] = Measurement of brain and systemic concentration after oral administration; type: in vivo; details: 3 h after oral administration (100 mg/kg), male wistar rats, n=3
# Experimental: Measurement of Brain and Systemic Concentration after Oral Administration:
# In order to assess brain penetration, the concentration of the compound is measured in plasma ([P]), and brain ([B]), sampled 3 h (or at different time points) following oral administration (e.g. 100 mg/kg) to male wistar rats. The compounds are formulated e.g. in 100% PEG 400. Samples are collected in the same animal at the same time point (+/−5 min).
# Blood is sampled from the vena cava caudalis into containers with EDTA as anticoagulant and centrifuged to yield plasma. Brain is sampled after cardiac perfusion of 10 mL NaCl 0.9% and homogenized into one volume of cold phosphate buffer (pH 7.4). All samples are extracted with MeOH and analyzed by LC-MS/MS. Concentrations are determined with the help of calibration curves.
# Wistar rats = assay: Sedative effects: EEG, EMG and behavioural indices of alertness recorded by radiotelemetry in vivo; details: 30 mg/kg po; effects analyzed over 6 hours; compared to vehicle controls
# Experimental: Sedative Effects: EEG, EMG and Behavioural Indices of Alertness Recorded by Radiotelemetry In Vivo in Wistar Rats.
# Electroencephalography (EEG) and Electromyography (EMG) signals were measured by telemetry using TL11M2-F20-EET miniature radiotelemetric implants (Data Science Int.) with two pairs of differential leads.
# Surgical implantation was performed under general anesthesia with Ketamin/Xylazin, for cranial placement of one differential pair of EEG electrodes and one pair of EMG leads inserted in either side of the muscles of the neck. After surgery, rats recovered in a thermoregulated chamber and received analgesic treatment with subcutaneous buprenorphine twice a day for 2 d. They were then housed individually and allowed to recover for a minimum of 2 weeks. Thereafter, rats—in their home cage—were placed in a ventilated sound-attenuating box, on a 12-h light/12-h dark cycle, for acclimatization before continuous EEG/EMG recordings started. The telemetric technology that we used in this study allows accurate and stress-free acquisition of biosignals in rats placed in their familiar home cage environment, with no recording leads restricting their movements. Variables analyzed included four different stages of vigilance and sleep, spontaneous activity in the home cage and body temperature. Sleep and wake stages were evaluated using a rodent scoring software (Somnologica Science) directly processing electrical biosignals on 10 s contiguous epochs. The scoring is based on frequency estimation for EEG and amplitude discrimination for EMG and locomotor activity. Using these measurements, the software determines the probability that all components within each epoch best represent active waking (AW), quiet waking (QW), non-REM-sleep (NREM) or REM-sleep (REM). The percentage of total time spent in AW, QW, NREM- and REM-sleep was calculated per 12 h light or dark period. The latency to the onset of the first significant NREM- and REM-sleep episodes and the frequency and duration of those episodes were also calculated. AW, QW, NREM- and REM-sleep, home cage activity and body temperature were measured at baseline for at least one total circadian cycle (12 h-night, 12 h-day) before a test compound was administered. […] All variables were subsequently recorded for 12 h following administration of the orexin receptor antagonist.
# rodents [2] = details: cited from earlier work
# rodents [3] = details: repeated amphetamine administration; cited from earlier work
# humans = details: cited from earlier work
# rat [4] = details: cited from earlier work
# rats [5] = details: cited from earlier work
# rat [6] = details: cited from earlier work; remark: listed apart in the source
# rats [7] = details: rats treated with the compound; cited from earlier work
# [8] = tested on: amyloid precursor protein transgenic mice; details: after acute sleep restriction; cited from earlier work
# mouse = details: administered chronically; cited from earlier work
# rats [9] = details: fasted hungry rats exposed to food odors; cited from earlier work
# rat [10] = details: cited from earlier work; remark: listed apart in the source
# human orexin-1 receptor = human orexin-1 receptor (Homo sapiens (Human), UniProt O43613); assay: In vitro assay: intracellular calcium measurements (FLIPR), antagonistic activity; type: cell-based; details: CHO cells expressing human orexin-1 receptor, orexin-A agonist, geometric mean, read-out: IC50 Ox1
# Sequence of human orexin-1 receptor (O43613 whole entry): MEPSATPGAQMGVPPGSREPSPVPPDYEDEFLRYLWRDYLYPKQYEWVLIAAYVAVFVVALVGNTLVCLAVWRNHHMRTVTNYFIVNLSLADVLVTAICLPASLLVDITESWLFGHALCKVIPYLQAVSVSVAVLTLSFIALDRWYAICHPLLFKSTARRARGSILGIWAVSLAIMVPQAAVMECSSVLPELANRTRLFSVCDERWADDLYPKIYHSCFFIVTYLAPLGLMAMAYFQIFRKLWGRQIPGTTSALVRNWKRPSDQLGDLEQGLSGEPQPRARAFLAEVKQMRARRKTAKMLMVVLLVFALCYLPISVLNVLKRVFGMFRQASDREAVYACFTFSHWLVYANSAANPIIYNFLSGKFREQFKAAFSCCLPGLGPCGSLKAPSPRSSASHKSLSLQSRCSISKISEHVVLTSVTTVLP
# In short: (§1)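 Read-out: FLIPR fluo-4 calcium peak height in CHO cells bearing human orexin-1 or orexin-2 receptor, relative to orexin-A (approx. EC70) with vehicle. Antagonist preincubation 120 min; agonist orexin-A at 3 nM final. IC50 possibly normalized to an on-plate reference compound.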
# human orexin-2 receptor = human orexin-2 receptor (Homo sapiens (Human), UniProt O43614); assay: as above; type: cell-based; details: CHO cells expressing human orexin-2 receptor, orexin-A agonist, geometric mean, read-out: IC50 Ox2
# Sequence of human orexin-2 receptor (O43614 whole entry): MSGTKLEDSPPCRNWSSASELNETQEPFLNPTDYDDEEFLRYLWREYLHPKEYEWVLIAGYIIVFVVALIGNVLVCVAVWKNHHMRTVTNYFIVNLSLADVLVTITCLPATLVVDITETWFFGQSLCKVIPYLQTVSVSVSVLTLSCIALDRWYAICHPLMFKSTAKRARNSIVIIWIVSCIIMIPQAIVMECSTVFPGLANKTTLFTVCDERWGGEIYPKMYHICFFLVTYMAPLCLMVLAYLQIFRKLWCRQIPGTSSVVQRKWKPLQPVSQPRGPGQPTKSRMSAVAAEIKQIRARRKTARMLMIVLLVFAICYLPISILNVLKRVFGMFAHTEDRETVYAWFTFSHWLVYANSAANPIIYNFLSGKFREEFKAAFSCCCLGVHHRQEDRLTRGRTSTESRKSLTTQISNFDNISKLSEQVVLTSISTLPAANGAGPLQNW
# In short: as §1
Compound,concentration of the compound in brain [B] [1] [ng/g],concentration of the compound in plasma [P] [1] [ng/mL],effect on NREM sleep (Wistar rats),effect on REM sleep (Wistar rats),effect on active wake (Wistar rats) [%],effect on home cage activity (Wistar rats) [%],IC50 (human orexin-1 receptor) [nM],IC50 (human orexin-2 receptor) [nM],other results
COc1ccc(-n2nccn2)c(C(=O)N2CCC[C@@]2(C)c2nc3c(C)c(Cl)ccc3[nH]2)c1 [Example 5.36],1808,1280,+27%,+53%,−24,−31,,,
Cn1c(SCC(=O)N2CCC[C@H]2C(=O)Nc2ccccc2-c2ccccc2)nc2ccccc21 [N-biphenyl-2-yl-1-{[(1-methyl-1H-benzimidazol-2-yl)sulfanyl]acetyl}-L-prolinamide],,,,,,,,,nicotine-reinstatement for a conditioned reinforcer (rodents [2]): inhibited; behavioral (locomotor sensitization) and molecular (transcriptional responses) changes (rodents [3]): reduced
"CNC(=O)[C@@H](c1ccccc1)N1CCc2cc(OC)c(OC)cc2[C@@H]1CCc1ccc(C(F)(F)F)cc1 [(2R)-2-{(1S)-6,7-dimethoxy-1-[2-(4-trifluoromethyl-phenyl)-ethyl]-3,4-dihydro-1H-isoquinolin-2-yl}-N-methyl-2-phenyl-acetamide]",,,,,,,,,clinical efficacy in primary insomnia (humans): showed clinical efficacy; alertness (active wake and locomotion) (rat [4]): decrease alertness; time spent in both REM and NREM sleep (rat [4]): dose-dependently increase; cardiovascular responses to conditioned fear and novelty exposure (rats [5]): attenuated; activity in fear-potentiated startle paradigm (rat [6]): active; learning and memory (rats [7]): intact declarative and non-declarative learning and memory; brain levels of amyloid-beta and Aβ plaque deposition [8]: decreased; antidepressant-like activity (mouse): induce antidepressant-like activity; natural activation induced by orexin A (rats [9]): attenuate; pharmacological activity in nicotine self-administration (rat [10]): displayed pharmacological activity
Cc1ccc(-n2nccn2)c(C(=O)N2CCC[C@@]2(C)c2nc3cc(Br)cc(C)c3[nH]2)c1 [Example 5.19],3880,2095,+31%,+69%,−28,−46,9,20,
Cc1ccc(-c2ncccn2)c(C(=O)N2CCC[C@@]2(C)c2nc3cc(Br)cc(C)c3[nH]2)c1 [Example 5.277],5880,3560,+21%,+52%,−22,−42,6,21,
